Results on eight compounds are retold here after patent publication US6645973B1, “Spiro(2h-1-benzopyran-2,4-piperidine)derivatives as glycine transport inhibitors” (Akzo Nobel, priority 1999, dated 2003).

SMILES strings stand for the structures. Where a name gives a salt, the structure may show the parent alone.

Broadly, the melting point is the temperature, or range, at which the solid turns liquid.

With `O=C(O)CN1CCC2(C=C(c3ccc(Cl)c(F)c3)c3ccccc3O2)CC1` (as salt: hydrochloride) [Example 8, 1′-Carboxymethyl-4-(4-chloro-3-fluorophenyl)spiro[2H-1-benzopyran-2,4′-piperidine]hydrochloride], the melting point was in the range of 263 to 274 °C.
The compound `COc1ccc(C2=CC3(CCN(CC(=O)O)CC3)Oc3ccccc32)cc1F` (as salt: hydrochloride) [Example 11, 1′-Carboxymethyl-4-(3-fluoro-4-methoxyphenyl)spiro[2H-1-benzopyran-2,4′-piperidine]hydrochloride] showed a melting point of 252 to 261 °C.
`CN(C)c1ccc(C2=CC3(CCN(CC(=O)O)CC3)Oc3ccccc32)cc1F` (as salt: hydrochloride) [Example 37, 1′-Carboxymethyl-4-(4-dimethylamino-3-fluorophenyl)spiro[2H-1-benzopyran-2,4′-piperidine]hydrochloride] had a melting point of 231 to 239 °C.
With `C#CCOc1c(F)cc(C2=CC3(CCN(CC(=O)O)CC3)Oc3ccccc32)cc1F` (as salt: hydrochloride) [Example 57, 1′-Carboxymethyl-4-(3,5-difluoro-4-propargyloxyphenyl)spiro[2H-1-benzopyran-2,4′-piperidine]hydrochloride], the melting point was 211 to 217 °C.
To `O=C([O-])CN1CCC2(CC1)CC(c1ccc(F)cc1)c1ccccc1O2.[Li+]` (centres unmarked) belongs 274 to 278 °C (dec.); to `C=CCOc1c(F)cc(C2=CC3(CCN(CC(=O)O)CC3)Oc3ccccc32)cc1F` (as salt: hydrochloride) [Example 55, 4-(4-Allyloxy-3,5-difluorophenyl)-1′-carboxymethylspiro[2H-1-benzopyran-2,4′-piperidine]hydrochloride], 221 to 225 °C.
Next, `O=C(O)CN1CCC2(C=C(c3ccc(Cl)cc3)c3ccccc3O2)CC1` (as salt: hydrochloride) [Example 2, 1′-Carboxymethyl-4-(4-chlorophenyl)spiro[2H-1-benzopyran-2,4′-piperidine]hydrochloride]: 259 to 265 °C; `CN(C)c1c(F)cc(C2=CC3(CCN(CC(=O)O)CC3)Oc3ccccc32)cc1F` (as salt: hydrochloride) [Example 38, 1′-Carboxymethyl-4-(3,5-difluoro-4-dimethylaminophenyl)spiro[2H-1-benzopyran-2,4′-piperidine]hydrochloride]: 231 to 242 °C.
